Laboratory results published in the supplement of paper PMC10307832.

What was measured:
Assay in all cases: relative viability (nuclei count vs DMSO), 5 days (fraction); higher = more cells survive
[1] = compound: CC1=C(C(=O)N2C=CSC2=N1)CCN3CCC(=C(C4=CC=CC=C4)C5=CC=C(C=C5)F)CC3 + CC1(C)CCC(c2ccc(Cl)cc2)=C(CN2CCN(c3ccc(C(=O)NS(=O)(=O)c4ccc(N[C@H](CCN5CCOCC5)CSc5ccccc5)c(S(=O)(=O)C(F)(F)F)c4)cc3)CC2)C1 [Navitoclax] (partner 0.5 µM)
Procedure, shortened: (§1)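 After 5 days of treatment, lung cancer cells in 1536-well plates were fixed and stained in a single step (final 0.05% Triton X-100, 1% formaldehyde, 1 ug/ml Hoechst) and their nuclei counted on 4× images. Treatment had been applied by pin tool the day after seeding as one drug alone or as a fixed anchor-drug dose with five library-drug doses (not always all listed) in √10 steps. Relative viability is the nuclei count of treated wells divided by that of vehicle wells, and values are medians of duplicate plates.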

[2] = compound: CC1=C(C(=O)N2C=CSC2=N1)CCN3CCC(=C(C4=CC=CC=C4)C5=CC=C(C=C5)F)CC3 + CCNC(=O)c1noc(-c2cc(C(C)C)c(O)cc2O)c1-c1ccc(CN2CCOCC2)cc1 [Luminespib] (partner 0.01 µM)
Procedure, shortened: as §1

[3] = compound: CC1=C(C(=O)N2C=CSC2=N1)CCN3CCC(=C(C4=CC=CC=C4)C5=CC=C(C=C5)F)CC3 + COc1cc2c(Oc3ccc(NC(=O)C4(C(=O)Nc5ccc(F)cc5)CC4)cc3F)ccnc2cc1OCCCN1CCOCC1 [Foretinib] (partner 0.25 µM)
Procedure, shortened: as §1

[4] = compound: CC1=C(C(=O)N2C=CSC2=N1)CCN3CCC(=C(C4=CC=CC=C4)C5=CC=C(C=C5)F)CC3 + C[C@]1(O)C[C@@H](c2nc(-c3ccc4ccc(-c5ccccc5)nc4c3)c3c(N)nccn32)C1 [Linsitinib] (partner 1 µM)
Procedure, shortened: as §1

Cell Line | relative viability ([1]; first compound 0.08 µM) | relative viability ([1]; first compound 0.253 µM) | relative viability ([1]; first compound 0.8 µM) | relative viability ([1]; first compound 2.53 µM) | relative viability ([1]; first compound 8 µM) | relative viability ([2]; first compound 0.08 µM) | relative viability ([2]; first compound 0.253 µM) | relative viability ([2]; first compound 0.8 µM) | relative viability ([2]; first compound 2.53 µM) | relative viability ([2]; first compound 8 µM) | relative viability ([3]; first compound 0.08 µM) | relative viability ([3]; first compound 0.253 µM) | relative viability ([3]; first compound 0.8 µM) | relative viability ([3]; first compound 2.53 µM) | relative viability ([3]; first compound 8 µM) | relative viability ([4]; first compound 0.08 µM) | relative viability ([4]; first compound 0.253 µM) | relative viability ([4]; first compound 0.8 µM) | relative viability ([4]; first compound 2.53 µM) | relative viability ([4]; first compound 8 µM)
LU99A | 0.919 | 0.867 | 0.734 | 0.929 | 0.631 | 0.274 | 0.262 | 0.282 | 0.205 | 0.259 | 0.793 | 0.771 | 0.832 | 0.822 | 0.802 | 0.565 | 0.495 | 0.517 | 0.666 | 0.446
LXF-289 | 0.917 | 1.19 | 0.947 | 0.97 | 0.816 | 0.513 | 0.713 | 0.599 | 0.839 | 0.529 | 1 | 1.01 | 1.01 | 1.01 | 0.879 | 0.948 | 1.1 | 0.989 | 0.96 | 0.83
NCI-H23 | 0.722 | 0.862 | 0.776 | 0.863 | 0.489 | 0.205 | 0.207 | 0.22 | 0.23 | 0.241 | 0.945 | 0.902 | 0.924 | 1.02 | 0.795 | 0.525 | 0.762 | 0.616 | 0.676 | 0.339
NCI-H322M | 0.987 | 1.29 | 1.34 | 1.36 | 0.889 | 0.768 | 0.899 | 0.928 | 0.888 | 0.81 | 0.86 | 1.01 | 1.11 | 0.942 | 0.9 | 0.808 | 0.924 | 0.926 | 1.01 | 0.702
NCI-H441 | – | 0.694 | 0.686 | 0.638 | 0.371 | 0.314 | 0.477 | 0.369 | 0.361 | 0.339 | 1.07 | 0.968 | 1.05 | 0.976 | 0.84 | – | 0.541 | 0.777 | 0.654 | 0.355
NCI-H460 | 0.787 | 0.957 | 1.55 | 1.56 | 0.0629 | 0.0343 | 0.034 | 0.0356 | 0.0314 | 0.0271 | 0.782 | 0.796 | 1.16 | 1.13 | 0.232 | 0.475 | 0.729 | 0.783 | 1.13 | 0.435
NCI-H520 | 1.04 | 0.939 | 1.21 | 1.35 | 0.701 | 0.202 | 0.236 | 0.25 | 0.251 | 0.248 | 0.778 | 0.846 | 0.924 | 0.873 | 0.641 | 1.13 | 0.723 | 0.902 | 0.943 | 0.768
NCI-H596 | 0.85 | 1.17 | 1.04 | 1.1 | 0.556 | 1.05 | 0.978 | 1.23 | 1.08 | 0.655 | 0.797 | 0.936 | 0.885 | 1.1 | 0.519 | 0.935 | 1.1 | 1.2 | 1.03 | 0.755
